Measured values published in US6506937B2, “Substituted benzenesulfonylureas and -thioureas-processes for their preparation and their use as pharmaceuticals” (priority 1993, dated 2003).

Experiments:
[1] = tested on: papillary muscle of the guineapig; assay: Action potential duration on the papillary muscle of the guineapig; format: cell-based; settings: test substance 2.2×10^−5 mol per liter, 30 minutes after the addition, repolarization degree of 95%; for APD95-HOE 234: action potential shortened by 1 μM potassium channel opener Hoe 234 (rilmakalim); for APD95-DEO: action potential shortened by 2-deoxyglucose (DEO)
Excerpt: (1) Action potential duration on the papillary muscle of the guineapig:
ATP deficiency states such as are observed during ischemia in the cardiac muscle cell lead to a shortening of the duration of action potential. They are one of the causes of so-called reentry arrhythmias, which can cause sudden cardiac death. Opening of ATP-sensitive K channels by the reduction in ATP is a cause of this.
A standard microelectrode technique is used for measurement of the action potential. For this, guineapigs of both sexes are sacrificed by a blow to the head, the hearts are removed and the papillary muscles are separated out and suspended in an organ bath. The organ bath is flushed with Ringer solution (0.9% NaCl, 0.048% KCl, 0.024% CaCl2, 0.02% NaHCO3 and 0.1% glucose) and gassed with a mixture of 95% oxygen and 5% carbon dioxide at a temperature of 36° C. The muscle is stimulated via an electrode with rectangular pulses of 1 V and 1 ms duration and a frequency of 2 Hz. The action potential is conducted and recorded through a glass microelectrode, which is punctured intracellularly and filled with 3 mol KCl solution. The substances to be tested were added to the Ringer solution in a concentration of 2.2×10^−5 mol per liter. The action potential is shown in amplified form on an oscilloscope using a Hugo Sachs amplifier. The duration of the action potential is determined at a repolarization degree of 95% (APD95). Shortenings in action potential are caused either by addition of a 1 μM strength solution of the potassium channel opener Hoe 234 (rilmakalim) [W. Linz, E. Klaus, U. Albus, R. H. A. Becker, D. Mania, H. C. Englert, B. A. Schölkens Arzneimittelforechung/Drug Research, Volume 42 (II), 1992, pages 1180-1185] or by addition of 2-deoxyglucose (DEO). ATP deficiency states are caused in experimental physiology by 2-deoxyglucose by blockade of glucose meta-bolism. The action potential-shortening effect of these substances was prevented or reduced by the simultaneous dose of the test substances. The test substances were added to the bath solution as stock solutions in propanediol. The values stated relate to measurements 30 minutes after the addition. The APD95 in the presence of DEO or HOE 234 and in the absence of the test substance serves an a control.

RINm5F cells = assay: Membrane potential on isolated β cells (RINm5F cells, whole cell patch clamp); format: cell-based; settings: compound 10^−5 mol per liter, diazoxide (100 μmol) in bath, 34±1° C.
Excerpt: (2) Membrane potential on isolated β cells:
The action mechanism of hypoglycemic sulfonylureas is clarified in rough outlines. The β cells of the pancreas are the target organ, where increased secretion of the hypoglycemic hormone insulin occurs. The release of insulin is controlled by the cell membrane potential. Glibenclamide causes depolarization of the cell membrane, which promotes insulin release via an increased in-flow of calcium ions. The extent of this depolarization of the call membrane ΔU was determined on RINm5F cells, a pancreas tumor cell line, for some of the compounds according to the invention. The action strength of a compound in this model predicts the extent of the hypoglycemic potential of this compound.
RINm5F cells were cultured at 37° C. in RPMI 1640 culture medium (flow), to which […] of glucose, 10% (volume/volume) of fetal calf serum, 2 mmol of glutamine and 50 μg/ml of gentamycin were added. For the studies, the cells were isolated by incubation (about 3 minutes) in a Ca^2+-free medium containing 0.25% of trypsin and stored on ice.
Isolated RINm5F cells were introduced into a Plexi-glas chamber on an inverse microscope fitted with a differential interference contrast lens. A fire-polished micropipette with an opening diameter of about 1 μm was placed on the cell with the aid of a micromanipulator under optical control (400-fold magnification). By applying a slight reduced pressure in the patch pipette, a high electrical seal was first produced between the glass and cell membrane, and was then broken open by increasing the reduced pressure of the membrane spot under the measurement pipette. The cell potential was recorded in this whole cell configuration with the aid of a patch clamp amplifier (L/M EPC 7) and was measured by applying a potential ramp to the whole cell current.
Solutions: The patch pipette was filled with KCl solution (in mmol): 140 KCl, 10 NaCl, 1.1 MgCl2, 0.5 EGTA, 1 Mg-ATP, 10 HEPES, pH=7.2, and the bath contained NaCl solution (in mmol): 140 NaCl, 4.7 KCl, 1.1 MgCl2, 2 CaCl2, 10 HEPES, pH=7.4. […]

Row | Compound | melting point [°C] | APD95-HOE 234 [1] | APD95-DEO [1] | ΔU (depolarization of the cell membrane) (RINm5F cells)
1 | CNC(=S)NS(=O)(=O)c1cc(CCNC(=O)c2cc(Cl)ccc2OC)ccc1C | 183 | – | – | –
2 | CNC(=S)NS(=O)(=O)c1cc(CCNC(=O)c2cc(F)ccc2OC)ccc1OC | 182 to 185 | – | – | –
3 | CCc1ccc(CCNC(=O)c2cc(Cl)ccc2OC)cc1S(=O)(=O)NC(=S)NC | 155 | – | – | –
4 | CNC(=O)NS(=O)(=O)c1cc(CCNC(=O)c2cc(Cl)ccc2OC)ccc1OC [Example 1, 2-Methoxy-5-chloro-N-{5-[1-sulfonylamino-N-(methylaminocarbonyl)-2-methoxyphenyl]-ethyl}-benzamide] | – | 138 ± 3 (160 ± 20) ms | 107 ± 14 (155 ± 9) ms | 13 (−76) n = 6 mv
5 | CNC(=O)NS(=O)(=O)c1cc(CCNC(=O)c2cc(Cl)ccc2OC)ccc1C [Example 4, 2-Methoxy-5-chloro-N-{5-[1-sulfonylamino-N-(methylaminocarbonyl)-2-methylphenyl]-ethyl}-benzamide] | – | 123 ± 15 (172 ± 18) ms | 110 ± 23 (180 ± 5) ms | 19 (−76) n = 3 mv
6 | CNC(=S)NS(=O)(=O)c1cc(CCNC(=O)c2cc(Cl)ccc2OC)ccc1OC [Example 10, 2-Methoxy-5-chloro-N-{5-[1-sulfonylamino-N-(methylaminothiocarbonyl)-2-methoxyphenyl]-ethyl}-benzamide] | – | 137 ± 20 (150 ± 23) ms | 125 (175) ms | 11 (−79) n = 3 mv

The next lines start with results.

Row | melting point [°C] | Compound | APD95-HOE 234 [1] | APD95-DEO [1] | ΔU (depolarization of the cell membrane) (RINm5F cells)
7 | 190 to 195 | CCOc1ccc(CCNC(=O)c2cc(Cl)ccc2OC)cc1S(=O)(=O)NC(=O)NC | – | – | –
8 | 207 | CCc1ccc(CCNC(=O)c2cc(Cl)ccc2OC)cc1S(=O)(=O)NC(=O)NC | – | – | –
9 | 285 | CNC(=O)NS(=O)(=O)c1cc(CCCNC(=O)c2cc(Cl)ccc2OC)ccc1OC | – | – | –
10 | 199 to 200 | CNC(=O)NS(=O)(=O)c1cc(CCNC(=O)c2cc(F)ccc2OC)ccc1OC | – | – | –
